The text below walks through data of ChEMBL document CHEMBL1201862, “PubChem BioAssay data set” (2004).

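Cells were grown in 96-well plates and exposed to each compound for 48 hours at five concentrations; endpoints were interpolated linearly between bracketing concentrations, or set to the highest concentration if not reached. At the GI50, growth is halved.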 Activity calls are given as the source filed them. Rule as the data show it: active = GI50 up to about 1.1 µM and inactive = higher. Bounds are passed on as bounds.

Test systems include 786-0; A549; ACHN; CAKI-1; DU-145; HCC 2998; HCT-116; HT-29; M14; MCF7; MOLT-4; NCI/ADR-RES; SF-268; SF-295; SK-MEL-28; SK-MEL-5; SW-620; TK-10; UACC-257; MDA-N.
Common to all, as to assay: NCI anticancer screen, dose series, 48 h

Turning to `CCCCCCCCC[C@@H]1C[C@@H]2CCC3C(C(=O)OCCCCNC(=O)OCc4ccccc4)=C(C)N=C(N1)N32` (stereo partly specified), the GI50 is 1.76 µM (inactive) in the test on 786-0; 4.57 µM (inactive) with A549; 3.15 µM (inactive) in the test on ACHN; 3.62 µM (inactive) in the test on CAKI-1; 4.76 µM (inactive) with DU-145; 3.06 µM (inactive) in the test with HCC 2998. Besides, the GI50 with HCT-116 is 3.11 µM (inactive); with HT-29, 3.29 µM (inactive); in the test on M14 it was 2.55 µM (inactive); with MCF7 it was 1.94 µM (inactive); with MOLT-4, 2.59 µM (inactive); in the test with NCI/ADR-RES, 2.62 µM (inactive). Further, the GI50 in the test on SF-268 was 2.85 µM (inactive); with SF-295 it was 3.44 µM (inactive); in the test with SK-MEL-28, 3.61 µM (inactive); in the test with SK-MEL-5, 1.59 µM (inactive); in the test with SW-620, 3.45 µM (inactive); in the test on TK-10 it was 4.5 µM (inactive). The GI50 with UACC-257 is 3.27 µM (inactive).
Consider `C/C(=C\CO)CC/C=C(\C)CNc1ccccc1`, for which the GI50 with 786-0 was > 100 µM (inactive); with A549, 50.8 µM (inactive); in the test on ACHN, > 100 µM (inactive); in the test on CAKI-1, 57.5 µM (inactive); in the test with DU-145, 37.8 µM (inactive); in the test with HCT-116, 54.5 µM (inactive). Also, the GI50 was 19.4 µM (inactive) in the test on HT-29; 62.7 µM (inactive) in the test on M14; 78.7 µM (inactive) in the test with MCF7; 13 µM (inactive) in the test with MOLT-4; 40.4 µM (inactive) with NCI/ADR-RES; 73.1 µM (inactive) in the test on SF-268. The GI50 with SF-295 is 38.5 µM (inactive); with SK-MEL-28, 51.1 µM (inactive); in the test with SK-MEL-5 it was 16 µM (inactive); in the test on SW-620 it was 50.2 µM (inactive); with TK-10, 20.5 µM (inactive); with UACC-257 it was 27.3 µM (inactive).
As for `COc1c2c(c(CC=C(C)C)c3oc(=O)c(-c4ccc(O)cc4)c(O)c13)OC(C)(C)C=C2` [LONCHOCARPIC ACID], the GI50 with 786-0 was 25.5 µM (inactive); in the test on A549, 19.1 µM (inactive); in the test on ACHN it was 22.1 µM (inactive); in the test on CAKI-1, 40.6 µM (inactive); in the test with DU-145 it was 38.1 µM (inactive); in the test with HCC 2998 it was 20.8 µM (inactive). Further, the GI50 was 15.7 µM (inactive) in the test on HCT-116; 30 µM (inactive) in the test on HT-29; 25.8 µM (inactive) in the test on M14; 16.8 µM (inactive) in the test with MCF7; 24.9 µM (inactive) with MOLT-4; 28.7 µM (inactive) in the test with NCI/ADR-RES. Besides, the GI50 in the test on SF-268 was 14.1 µM (inactive); in the test with SF-295, 28.2 µM (inactive); in the test with SK-MEL-28 it was 25.9 µM (inactive); in the test on SK-MEL-5, 12.8 µM (inactive); in the test with SW-620 it was 44.1 µM (inactive); with TK-10 it was 32.4 µM (inactive). In the test with UACC-257, the GI50 was 27.7 µM (inactive).
For the compound `O=C(NNC(=S)NC1CCCCC1)c1csc(NC(=S)NC2CCCCC2)n1`, the GI50 with 786-0 was 7.64 µM (inactive); in the test with A549, 7.89 µM (inactive); in the test with ACHN it was 3.54 µM (inactive); in the test with CAKI-1, 7.23 µM (inactive); with DU-145, 14.9 µM (inactive); in the test on HCC 2998, 3.12 µM (inactive). The GI50 in the test with HCT-116 is 4.27 µM (inactive); with HT-29, > 100 µM (inactive); in the test on M14, 3.46 µM (inactive); in the test with MCF7 it was 7.55 µM (inactive); in the test on MOLT-4, 3.42 µM (inactive); with NCI/ADR-RES it was 2.74 µM (inactive). Besides, the GI50 was 6.21 µM (inactive) in the test on SF-268; 5.87 µM (inactive) in the test on SF-295; 2.01 µM (inactive) in the test with SK-MEL-5; 5.13 µM (inactive) in the test on SW-620; 6.38 µM (inactive) with TK-10; 3.24 µM (inactive) with UACC-257.
As for `N=C(N)NS(=O)(=O)c1ccc(NC(=O)c2cccc3c(Nc4ccc(S(=O)(=O)N=C(N)N)cc4)c4ccc(Cl)cc4nc23)cc1`, the GI50 in the test with 786-0 was > 100 µM (inactive); in the test with A549, 53 µM (inactive); with ACHN, 49.7 µM (inactive); with CAKI-1 it was 94.6 µM (inactive); in the test on HCC 2998 it was 79.3 µM (inactive); in the test on HCT-116, 38.7 µM (inactive). The GI50 in the test on HT-29 is > 100 µM (inactive); with M14, 70.1 µM (inactive); in the test with MOLT-4, 56.2 µM (inactive); in the test with SF-268, 48.4 µM (inactive); with SF-295 it was > 100 µM (inactive); in the test on SK-MEL-28, 75 µM (inactive). The GI50 in the test on SK-MEL-5 was 28.6 µM (inactive); in the test on SW-620, 62.4 µM (inactive); in the test on TK-10 it was > 100 µM (inactive); with UACC-257 it was 77.6 µM (inactive).
`CCOC(=O)c1c[nH]c(C(=O)OCC)c1-c1cccn1-c1ccccc1`: the GI50 is 22.8 µM (inactive) with 786-0; 26.6 µM (inactive) in the test on A549; 26.2 µM (inactive) with ACHN; 20.9 µM (inactive) in the test on CAKI-1; 43.2 µM (inactive) in the test with DU-145; 15.6 µM (inactive) with HCT-116. The GI50 was 26.4 µM (inactive) with HT-29; 20.2 µM (inactive) in the test on M14; 31.7 µM (inactive) in the test with MDA-N; 15.3 µM (inactive) with MOLT-4; 19.1 µM (inactive) in the test with NCI/ADR-RES; 25.5 µM (inactive) with SF-268. Besides, the GI50 was 19.3 µM (inactive) in the test with SF-295; 32.4 µM (inactive) with SK-MEL-28; 14.1 µM (inactive) with SK-MEL-5; 35.2 µM (inactive) in the test on SW-620; 36 µM (inactive) in the test with TK-10; 26.1 µM (inactive) in the test on UACC-257.
As for `Oc1ccc2ccccc2c1/N=N\c1cccc2ccccc12`, the GI50 in the test on 786-0, in the test on A549, with ACHN, in the test on CAKI-1, in the test on DU-145 and in the test with HCT-116 was > 100 µM (inactive) in each case. Moreover, the GI50 in the test with HT-29 is > 100 µM (inactive); in the test on M14, 95.9 µM (inactive); in the test on MDA-N, > 100 µM (inactive); with MOLT-4, 93.1 µM (inactive); in the test on NCI/ADR-RES, > 100 µM (inactive); in the test with SF-268 it was > 100 µM (inactive). Besides, the GI50 in the test on SF-295, in the test with SK-MEL-28, in the test with SK-MEL-5, with SW-620, in the test on TK-10 and with UACC-257 was > 100 µM (inactive) in each case.
Consider `CCOC(=O)C(=O)Nc1c(F)cc(F)cc1Br`, for which the GI50 in the test on 786-0, in the test on A549, in the test on ACHN, with CAKI-1, in the test with HCC 2998 and in the test on HCT-116 was > 100 µM (inactive) each time. Also, the GI50 in the test on HT-29, with M14, in the test on MOLT-4, in the test with SF-268, in the test with SF-295 and in the test with SK-MEL-28 was > 100 µM (inactive) throughout. In addition, the GI50 in the test with SK-MEL-5, in the test on SW-620, with TK-10 and in the test on UACC-257 was > 100 µM (inactive) each time.
Take `O=c1[nH]c(=O)n(Cc2ccccc2CO)cc1Sc1ccccc1`: the GI50 with 786-0 was 47.2 µM (inactive); with A549, 18.5 µM (inactive); with ACHN, 26.5 µM (inactive); with CAKI-1 it was 13.5 µM (inactive); in the test with DU-145, 58.9 µM (inactive); in the test on HCC 2998, 15.7 µM (inactive). The GI50 was 25.3 µM (inactive) with HCT-116; 30.5 µM (inactive) in the test with HT-29; 19.7 µM (inactive) with M14; 22.3 µM (inactive) with MCF7; 54.5 µM (inactive) with MOLT-4; 26.8 µM (inactive) with NCI/ADR-RES. The GI50 was 22.8 µM (inactive) with SF-268; 30 µM (inactive) with SF-295; 34.8 µM (inactive) with SK-MEL-28; 10.1 µM (inactive) with SK-MEL-5; 36.9 µM (inactive) in the test with SW-620; 30.7 µM (inactive) with TK-10. In the test on UACC-257, the GI50 is 21.6 µM (inactive).
On to `O=C(CSCC(=O)N/N=C\c1cc(Cl)cc(Cl)c1O)N/N=C\c1cc(Cl)cc(Cl)c1O`, for which the GI50 in the test on 786-0 was 6.46 µM (inactive); with A549 it was 18.7 µM (inactive); with ACHN, 0.204 µM (active); in the test on CAKI-1, 3.48 µM (inactive); in the test on DU-145, 8.91 µM (inactive); with HCT-116, 2.9 µM (inactive). Also, the GI50 in the test with HT-29 is 10.5 µM (inactive); in the test with M14, 4.93 µM (inactive); in the test with MCF7, 7.29 µM (inactive); in the test on MOLT-4, 1.63 µM (inactive); in the test with NCI/ADR-RES, 2.96 µM (inactive); in the test on SF-268, 2.32 µM (inactive). In addition, the GI50 in the test with SF-295 was 6.53 µM (inactive); in the test with SK-MEL-28, 5.21 µM (inactive); in the test with SK-MEL-5, 3.42 µM (inactive); in the test with SW-620, 3.79 µM (inactive); in the test with TK-10, 3.63 µM (inactive); in the test with UACC-257, 5.28 µM (inactive).
For the compound `CCOC(=O)CC1(N)CC2c3ccccc3OC(=O)C2C(=O)N1` (stereo unspecified), the GI50 in the test on 786-0, with A549, in the test with ACHN, in the test on CAKI-1, in the test with DU-145 and in the test with HCC 2998 was > 100 µM (inactive) each time. Also, the GI50 with HCT-116, in the test on HT-29, in the test with M14, in the test on MDA-N, in the test with MOLT-4 and in the test with NCI/ADR-RES was > 100 µM (inactive) in each case. In addition, the GI50 in the test on SF-268, in the test with SK-MEL-28, in the test on SW-620, in the test with TK-10 and in the test on UACC-257 was > 100 µM (inactive) throughout.
